Data from patent US6214881A, “IL-8 receptor antagonists” (SmithKline Beecham Corporation, priority 1999, dated 2001).

System: recombinant human IL-8 type a and b receptors
Assay: Receptor binding assays ([125I] IL-8 / 125I Gro-a, CHO membranes)
Details: 125I IL-8 (0.25 nM) or 125I Gro-a; IL-8Ra or IL-8Rb membranes from Chinese hamster ovary cells; receptor subtype not specified for the result
Experimental: The IL-8, and Gro-a chemokine inhibitiory effects of compounds of the present invention were determined by the following in vitro assay:
[^125 I] IL-8 (human recombinant) is obtained from Amersham Corp., Arlington Heights, Ill., with specific activity 2000 Ci/mmol. Gro-a is obtained from NEN-New England Nuclear. All other chemicals are of analytical grade. High levels of recombinant human IL-8 type a and b receptors are individually expressed in Chinese hamster ovary cells as described previously (Holmes, et al., Science, 1991, 253, 1278). The Chinese hamster ovary membranes are homogenized according to a previously described protocol (Haour. et al., J Biol Chem., 249 pp 2195-2205 (1974)). Except that the homogenization buffer is changed to 10 mM Tris-HCL, 1 mM MgSO4, 0.5 mM EDTA (ethylene-diaminetetra-acetic acid), 1 mMPMSF (a-toluenesulphonyl fluoride), 0.5 mg/L Leupeptin, pH 7.5. Membrane protein concentration is determined using Pierce Co. micro-assay kit using bovine serum albumin as a standard. All assays are performed in a 96-well micro plate format. Each reaction mixture contains ^125 I IL-8 (0.25 nM) or ^125 I Gro-a and 0.5 μg/mL of IL-8Ra or 1.0 μg/mL of IL-8Rb membranes in 20 mM Bis-Trispropane and 0.4 mM Tris HCl buffers, pH 8.0, containing 1.2 mM MgSO4, 0.1 mM EDTA, mM NaCl and 0.03% CHAPS. […] The filter is then dried and counted on the Betaplate liquid scintillation counter. […]

In the case of `Cc1ccc(S(=O)(=O)NC(=O)c2cccc(NC(=O)Nc3ccccc3Br)c2)cc1` [Example 1, N-[3-(4-methylphenylsulfonyl)carboxamido]-N'-(2-bromophenyl)urea], the “activity in receptor binding assay (inhibition of IL-8 / Gro-a binding)” value is reported as “active”.
